Laboratory results published in ChEMBL document CHEMBL1201862, “PubChem BioAssay data set” (2004).
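Protocol summary: plate cells (96-well), add compound at 5 concentrations, incubate 48 h, interpolate endpoints linearly. The concentration for 50% growth inhibition is given as GI50.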 Activity calls are given as the source filed them. No stated cut-off is given here; in the data, active = GI50 up to about 1.1 µM and inactive = higher.

Columns and labels:
Assay in all cases: DTP human tumour cell line panel, 48 h
HCT-116 = test system: HCT-116
COLO 205 = test system: COLO 205
NCI-H23 = test system: NCI-H23
EKVX = test system: EKVX
Malme-3M = test system: Malme-3M
NCI-H226 = test system: NCI-H226
M14 = test system: M14
MOLT-4 = test system: MOLT-4
SN12C = test system: SN12C
SF-268 = test system: SF-268
HOP-62 = test system: HOP-62
SNB-78 = test system: SNB-78
CAKI-1 = test system: CAKI-1
ACHN = test system: ACHN
SNB-75 = test system: SNB-75
OVCAR-8 = test system: OVCAR-8
SF-539 = test system: SF-539
U-251 = test system: U-251
Hs-578T = test system: Hs-578T
MDA-MB-435 = test system: MDA-MB-435

Row | Compound | GI50 (HCT-116) | GI50 (COLO 205) | GI50 (NCI-H23) | GI50 (EKVX) | GI50 (Malme-3M) | GI50 (NCI-H226) | GI50 (M14) | GI50 (MOLT-4) | GI50 (SN12C) | GI50 (SF-268) | GI50 (HOP-62) | GI50 (SNB-78) | GI50 (CAKI-1) | GI50 (ACHN) | GI50 (SNB-75) | GI50 (OVCAR-8) | GI50 (SF-539) | GI50 (U-251) | GI50 (Hs-578T) | GI50 (MDA-MB-435)
1 | CC1=C(/C=C/C(C)=C/C=C/C(C)=C/C=C/C=C(C)/C=C/C=C(C)/C=C/C2=C(C)C(=O)C(O)CC2(C)C)C(C)(C)CC(O)C1=O (stereo not drawn) | > 100 µM (inactive) | > 100 µM (inactive) | > 100 µM (inactive) | > 100 µM (inactive) | > 100 µM (inactive) | > 100 µM (inactive) | > 100 µM (inactive) | > 100 µM (inactive) | > 100 µM (inactive) | > 100 µM (inactive) | > 100 µM (inactive) | > 100 µM (inactive) | > 100 µM (inactive) | > 100 µM (inactive) | > 100 µM (inactive) | > 100 µM (inactive) | > 100 µM (inactive) | > 100 µM (inactive) | – | –
2 | C=C1COC(O)(C2OCOC(C3CC(=O)NC(=O)C3)C2O)C1C (stereo not drawn) | 0.00348 µM (active) | 0.00244 µM (active) | 0.00381 µM (active) | 0.00689 µM (active) | 0.00221 µM (active) | 0.00619 µM (active) | 0.00442 µM (active) | 0.0011 µM (active) | 0.00224 µM (active) | 0.00511 µM (active) | 0.00622 µM (active) | 0.00718 µM (active) | 0.00468 µM (active) | 0.00533 µM (active) | 0.00494 µM (active) | 0.00512 µM (active) | 0.00185 µM (active) | 0.00341 µM (active) | 0.00629 µM (active) | 0.00333 µM (active)
3 | CCOC(=O)/N=c1\ss/c(=N\C(=S)N(C)C)n1-c1ccccc1 | 7.62 µM (inactive) | 3.19 µM (inactive) | 67.5 µM (inactive) | > 100 µM (inactive) | > 10 µM (inactive) | > 10 µM (inactive) | > 10 µM (inactive) | 4.27 µM (inactive) | > 10 µM (inactive) | 2.06 µM (inactive) | 42.5 µM (inactive) | 36.3 µM (inactive) | 48 µM (inactive) | 52.1 µM (inactive) | 6.03 µM (inactive) | > 10 µM (inactive) | 40.7 µM (inactive) | 19.4 µM (inactive) | – | –
4 | N#CCCN(CCC#N)c1ccc(/C=N\c2ccc(F)cc2)cc1 | 6.97 µM (inactive) | 14 µM (inactive) | > 100 µM (inactive) | > 100 µM (inactive) | > 84.3 µM (inactive) | > 100 µM (inactive) | 1.62 µM (inactive) | > 19.8 µM (inactive) | > 75 µM (inactive) | 35.2 µM (inactive) | 27.1 µM (inactive) | > 100 µM (inactive) | > 68.5 µM (inactive) | 3.16 µM (inactive) | 73.6 µM (inactive) | > 100 µM (inactive) | 15.2 µM (inactive) | > 100 µM (inactive) | – | 17.3 µM (inactive)
5 | CCOc1ccc(/N=C/c2ccnc3ccccc23)cc1 | 0.912 µM (active) | 81.3 µM (inactive) | 49.3 µM (inactive) | > 93.1 µM (inactive) | 75.9 µM (inactive) | 73.6 µM (inactive) | 30.3 µM (inactive) | 5.9 µM (inactive) | 29 µM (inactive) | 27.2 µM (inactive) | 54.6 µM (inactive) | > 60.1 µM (inactive) | 74.3 µM (inactive) | 58.2 µM (inactive) | 29.2 µM (inactive) | 21.2 µM (inactive) | 26.5 µM (inactive) | 32.7 µM (inactive) | 40.4 µM (inactive) | 42.7 µM (inactive)
6 | CCO[C@@H]1C2C=CC(C2)[C@H]1[N+](=O)[O-] (stereo partly drawn) | > 100 µM (inactive) | > 100 µM (inactive) | > 100 µM (inactive) | > 100 µM (inactive) | > 100 µM (inactive) | > 100 µM (inactive) | > 100 µM (inactive) | > 100 µM (inactive) | > 100 µM (inactive) | > 100 µM (inactive) | > 100 µM (inactive) | > 100 µM (inactive) | > 100 µM (inactive) | > 100 µM (inactive) | 64.9 µM (inactive) | > 100 µM (inactive) | > 100 µM (inactive) | > 100 µM (inactive) | – | –
7 | COc1ccc2nc3ccccc3c(NCCN(C)CCCl)c2c1 | 0.249 µM (active) | 0.299 µM (active) | 0.604 µM (active) | 1.51 µM (inactive) | 0.399 µM (active) | 0.608 µM (active) | 0.843 µM (active) | 0.0429 µM (active) | 0.319 µM (active) | 0.55 µM (active) | 0.869 µM (active) | 0.902 µM (active) | 0.205 µM (active) | 0.24 µM (active) | 1.04 µM (active) | 0.431 µM (active) | 0.388 µM (active) | 0.541 µM (active) | – | 0.364 µM (active)
8 | Cc1nn2c(nc1=O)sc1ccc3ccccc3c12 | > 100 µM (inactive) | > 100 µM (inactive) | > 100 µM (inactive) | > 100 µM (inactive) | > 100 µM (inactive) | > 100 µM (inactive) | > 100 µM (inactive) | > 100 µM (inactive) | > 100 µM (inactive) | > 100 µM (inactive) | > 100 µM (inactive) | > 100 µM (inactive) | > 100 µM (inactive) | > 100 µM (inactive) | > 100 µM (inactive) | > 100 µM (inactive) | > 100 µM (inactive) | > 100 µM (inactive) | – | –
9 | CC1(C)O[C@H]2OC3CCC(=O)CC3(O)[C@H]2O1 (stereo partly drawn) | > 100 µM (inactive) | > 100 µM (inactive) | > 100 µM (inactive) | > 100 µM (inactive) | > 51.6 µM (inactive) | > 100 µM (inactive) | > 100 µM (inactive) | > 100 µM (inactive) | > 100 µM (inactive) | > 100 µM (inactive) | > 100 µM (inactive) | > 100 µM (inactive) | > 100 µM (inactive) | > 100 µM (inactive) | > 100 µM (inactive) | > 100 µM (inactive) | > 100 µM (inactive) | > 100 µM (inactive) | > 100 µM (inactive) | > 100 µM (inactive)
10 | C[C@@]12CCC(=O)c3coc(c31)C(=O)c1cc3c(cc12)C(=O)C=CC3=O [HELENAQUINONE] | 15.4 µM (inactive) | 16 µM (inactive) | 12.5 µM (inactive) | 23.6 µM (inactive) | 17.3 µM (inactive) | 29 µM (inactive) | 14.5 µM (inactive) | 14.3 µM (inactive) | 16.6 µM (inactive) | 18.8 µM (inactive) | > 100 µM (inactive) | 22 µM (inactive) | 21.1 µM (inactive) | 16.5 µM (inactive) | 20.9 µM (inactive) | 16.3 µM (inactive) | 17.6 µM (inactive) | 23.7 µM (inactive) | – | –
